Values quoted from earlier work in US6596297B2, “Biodegradable microbicidal vaginal barrier device” (New York Blood Center, Inc., priority 2002, dated 2003).

System: HIV-1

Nonoxynol-9 [N-9]
risk of sexual transmission of HIV-1: increase the risk of sexual transmission of HIV-1
